# Measured values reported in patent US20240002407A1, “THIENOPYRIMIDINONE DERIVATIVES” (Hoffmann-La Roche Inc., priority 2021, published 2024).
# System: mutant HTT protein (mHTT)
# Experiment: Homogeneous Time Resolved Fluorescence (HTRF) assay for HTT lowering in GENEAe020-A cells
# Assay type: cell-based
# Conditions: reduction of mHTT; Huntington patient human cells (GENEAe020-A cell line); 48 hours incubation; mean from three replicates
# Method: The HTRF assay was adapted from Weiss et al. (Analytical Biochemistry Volume 395, Issue 1, 1 Dec. 2009, Pages 8-15 and Analytical Biochemistry Volume 410, 2011, Pages 304-306) to cells from GENEAe020-A cell line (https://hpscreg.eu/cell-line/GENEAe020-A).
# Compounds were tested for the effect of mutant HTT levels in Huntington patient human cells (GENEAe020-A cell line) using Homogeneous Time Resolved Fluorescence (HTRF) directed towards mutant HTT protein (mHTT). The GENEAe020-A cell line was derived by Genea Biocells from human blastocysts of HD donors. After assessing viability, cells were plated into 384 well collagen coated plates in growth media. Once cells adhered, media was removed and test compounds dissolved in DMSO were diluted with buffer solution and added to the adherent cells. Controls included experiments with no cells, DMSO with no compound, and Hsp90 inhibitor control. Cells were incubated with compounds and controls for 48 hours. Then, the cells were lysed and transferred to an assay plate containing HTRF labeled monoclonal antibodies developed by Paul Patterson (Ko et al., Brain Research Bulletin, Volume 56, Numbers 3 and 4, 2001, Pages 319-329) which recognize specific areas of the HTT protein. The terbium labeled “donor” antibody (2B7) binds to the N-terminus of the HTT protein and the Alexa488 labeled “acceptor” antibody (MW1) is specific for the polyglutamine region of the protein. Binding of the acceptor labeled antibody is more efficient for the extended polyglutamine repeats of mutant HTT protein which translates into a signal boost which enables the specific measurement of mutant HTT protein level. The HTRF donor and acceptor detection reagents were incubated with the cell lysate and the ratio between the signals of the two fluorophores is indicative of the relative quantities of mHTT.
row,SMILES,EC50 [nM]
1,"Cc1cn2nc(-c3nc4sc([C@H]5CCNC[C@H]5F)cc4c(=O)[nH]3)cc(C)c2n1 (racemic) [Example 2, 2-(2,8-Dimethylimidazo[1,2-b]pyridazin-6-yl)-6-[(3SR,4SR)-3-fluoro-4-piperidyl]-3H-thieno[2,3-d]pyrimidin-4-one]",205
2,"Cc1cn2nc(-c3nc4sc(C5CCNCC5)cc4c(=O)[nH]3)cc(C)c2n1 [Example 1, 2-(2,8-Dimethylimidazo[1,2-b]pyridazin-6-yl)-6-(4-piperidyl)-3H-thieno[2,3-d]pyrimidin-4-one hydrogen chloride]",50
3,"Cc1cn2nc(-c3nc4sc(C5CCNCC5(F)F)cc4c(=O)[nH]3)cc(C)c2n1 (stereo not drawn) [Example 3, 6-(3,3-Difluoro-4-piperidyl)-2-(2,8-dimethylimidazo[1,2-b]pyridazin-6-yl)-3H-thieno[2,3-d]pyrimidin-4-one]",2270
4,"Cc1cn2nc(-c3nc4sc(OC5CNC5)cc4c(=O)[nH]3)cc(C)c2n1 [Example 4, 6-(Azetidin-3-yloxy)-2-(2,8-dimethylimidazo[1,2-b]pyridazin-6-yl)-3H-thieno[2,3-d]pyrimidin-4-one]",4700
5,"Cc1cn2nc(-c3nc4sc(OC5CCNCC5)cc4c(=O)[nH]3)cc(C)c2n1 [Example 5, 2-(2,8-Dimethylimidazo[1,2-b]pyridazin-6-yl)-6-(4-piperidyloxy)-3H-thieno[2,3-d]pyrimidin-4-one]",282
6,"Cc1cn2nc(-c3nc4sc(C5CCNC6(CC6)C5)cc4c(=O)[nH]3)cc(C)c2n1 (stereo not drawn) [Example 6, 6-(4-Azaspiro[2.5]octan-7-yl)-2-(2,8-dimethylimidazo[1,2-b]pyridazin-6-yl)-3H-thieno[2,3-d]pyrimidin-4-one]",203
